Source: patent US7700609B2, “Compositions useful as inhibitors of protein kinases” (Vertex Pharmaceuticals Incorporated, priority 2003, dated 2010)

Molecular target: T1, Itk (Homo sapiens, UniProt Q08881)
T1 sequence (Q08881 1-620): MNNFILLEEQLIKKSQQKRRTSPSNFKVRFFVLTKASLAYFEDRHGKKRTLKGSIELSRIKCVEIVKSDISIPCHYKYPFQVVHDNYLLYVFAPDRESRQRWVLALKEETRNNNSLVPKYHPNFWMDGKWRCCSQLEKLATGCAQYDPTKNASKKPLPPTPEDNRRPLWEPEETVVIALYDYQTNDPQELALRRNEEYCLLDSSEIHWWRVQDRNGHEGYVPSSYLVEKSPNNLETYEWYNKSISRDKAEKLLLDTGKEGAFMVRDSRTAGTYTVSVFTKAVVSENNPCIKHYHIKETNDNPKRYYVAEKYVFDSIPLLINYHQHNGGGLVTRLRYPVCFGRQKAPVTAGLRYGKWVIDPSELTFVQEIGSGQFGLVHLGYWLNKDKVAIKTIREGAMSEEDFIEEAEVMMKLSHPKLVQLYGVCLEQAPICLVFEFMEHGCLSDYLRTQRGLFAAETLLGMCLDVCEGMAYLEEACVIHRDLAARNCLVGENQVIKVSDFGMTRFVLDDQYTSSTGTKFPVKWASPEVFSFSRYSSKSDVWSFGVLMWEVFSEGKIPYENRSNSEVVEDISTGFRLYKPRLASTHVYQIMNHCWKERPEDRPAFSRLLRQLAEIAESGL
Assay: Itk inhibition assay: radioactivity-based (Method A)
Type: biochemical
Conditions: 15 μM ATP, read-out: IC50 in the radioactive incorporation assay (Method A)
Procedure: The compounds of the present invention were evaluated as inhibitors of human Itk kinase using either a radioactivity-based, spectrophotometric or alphascreen assay.
Assays were carried out in a mixture of 100 mM HEPES (pH 7.5), 10 mM MgCl2, 25 mM NaCl, 0.01% BSA and 1 mM DTT. Final substrate concentrations were 15 μM [γ-^33P]ATP (400 μCi ^33P ATP/μmol ATP, Amersham Pharmacia Biotech/Sigma Chemicals) and 2 μM peptide (SAM68 protein Δ332-443). Assays were carried out at 25° C. in the presence of 30 nM Itk. An assay stock buffer solution was prepared containing all of the reagents listed above, with the exception of ATP and the test compound of interest. 50 μL of the stock solution was placed in a 96 well plate followed by addition of 1.5 μL of DMSO stock containing serial dilutions of the test compound (typically starting from a final concentration of 15 μM with 2-fold serial dilutions) in duplicate (final DMSO concentration 1.5%). The plate was pre-incubated for 10 minutes at 25° C. and the reaction initiated by addition of 50 μL [γ-^33P]ATP (final concentration 15 μM).
The reaction was stopped after 10 minutes by the addition of 50 μL of a TCA/ATP mixture (20% TCA, 0.4 mM ATP). A Unifilter GF/C 96 well plate (Perkin Elmer Life Sciences, Cat no. 6005174) was pretreated with 50 μL Milli Q water prior to the addition of the entire reaction mixture (150 μL). The plate was washed with 200 μL Milli Q water followed by 200 μL of a TCA/ATP mixture (5% TCA, 1 mM ATP). This wash cycle was repeated a further 2 times. After drying, 30 μL Optiphase ‘SuperMix’ liquid scintillation cocktail (Perkin Elmer) was added to the well prior to scintillation counting (1450 Microbeta Liquid Scintillation Counter, Wallac).
IC50 data were calculated from non-linear regression analysis of the initial rate data using the Prism software package (GraphPad Prism version 3.0cx for Macintosh, GraphPad Software, San Diego Calif., USA).

| IC50 [µM] | Structure (SMILES) |
| --- | --- |
| < 1 | COc1cccc(-c2cc3c(s2)CCc2cnc(Nc4ccc(S(C)(=O)=O)cc4)nc2-3)c1 [Compound I-25] |
| < 1 | COc1cccc(-c2cc3c(s2)CCc2cnc(Nc4ccc(O)cc4)nc2-3)c1 [Compound I-23] |
| < 1 | NS(=O)(=O)c1cccc(Nc2ncc3c(n2)-c2cc(-c4cccc(C(=O)O)c4)sc2CC3)c1 [Compound I-4] |
| < 1 | CC(=O)Nc1cccc(-c2cc3c(s2)CCc2cnc(Nc4cccc(S(N)(=O)=O)c4)nc2-3)c1 [Compound I-6] |
| < 1 | COc1cccc(-c2cc3c(s2)CCc2cnc(Nc4ccc(S(N)(=O)=O)cc4)nc2-3)c1 [Compound I-18] |
| < 1 | NS(=O)(=O)c1cccc(Nc2ncc3c(n2)-c2cc(-c4ccccc4OC(F)(F)F)sc2CC3)c1 [Compound I-28] |
| < 1 | NS(=O)(=O)c1cccc(Nc2ncc3c(n2)-c2cc(-c4cccc(Cl)c4)sc2CC3)c1 [Compound I-15] |
| < 1 | COc1cccc(-c2cc3c(s2)CCc2cnc(Nc4cccc(S(N)(=O)=O)c4)nc2-3)c1 [Compound I-2] |
| < 1 | COc1cccc(-c2cc3c(s2)CCc2cnc(Nc4cccc(O)c4)nc2-3)c1 [Compound I-19] |
| < 1 | NS(=O)(=O)c1cccc(Nc2ncc3c(n2)-c2cc(-c4ccsc4)sc2CC3)c1 [Compound I-5] |
| < 1 | NS(=O)(=O)c1cccc(Nc2ncc3c(n2)-c2cc(-c4ccccc4CO)sc2CC3)c1 [Compound I-29] |
| < 1 | N#Cc1cccc(-c2cc3c(s2)CCc2cnc(Nc4cccc(S(N)(=O)=O)c4)nc2-3)c1 [Compound I-12] |
| < 1 | NS(=O)(=O)c1cccc(Nc2ncc3c(n2)-c2cc(-c4ccccc4Cl)sc2CC3)c1 [Compound I-7] |
